Broadly, the IC50 is the point on the concentration scale where inhibition reaches its midpoint.

Drawing on patent US10894798B2, “Substituted dihydropyrrolopyrazole derivative” (UBE INDUSTRIES, LTD., priority 2015, dated 2021), this text covers inhibition in vivo, GI50 and IC50 for four compounds.

In assay [1] the test system is mouse imiquimod-induced psoriasis model. Put plainly: Ear thickening suppression test using mouse imiquimod-induced psoriasis model. In kind it is in vivo. As to conditions: topical, application of a 0.01% solution in methanol, female BALB/c mice, read-out: rate of inhibition of increase in ear thickness. As for the experimental part: An imiquimod-induced psoriasis model test was carried out by modifying the method of Leslie van der Fits et al. (J. Immunol. 182, 5836 (2009)).
Female BALB/c mice (supplied by Charles River Laboratories Japan, Inc.) were used as laboratory animals. On the start day of the test, the thicknesses of the right auricles of the mice were measured with a thickness gauge (manufactured by TECLOCK Corp.). A test compound or a solvent was applied or orally administered thereto, and after a certain time, a certain amount of Beselna Cream 5% (containing 5% imiquimod, manufactured by Mochida Pharmaceutical Co., Ltd.) was applied to the insides of the right auricles. The test compound or solvent application or oral administration and the imiquimod application were carried out for a certain period, and the thicknesses of the right auricles were measured again on the final day. The thicknesses of the right auricles were compared between the solvent-administered group and the test compound group, and the rate of inhibition was calculated.

Assay [2] concerns prostate cancer cell line DU145. Description: Various human cancer cell growth inhibition test: DU145. In kind it is cell-based. The note with it: DU 145, ATPlite, read-out: GI50 value (concentration necessary for inhibiting 50% of cell growth). The text has this: (§1) A breast cancer cell line BT-549 (obtained from American Type Culture Collection (ATCC)), a uterus cancer cell line C-33A (obtained from ATCC), an ovary cancer cell line PA-1 (obtained from ATCC), a large-cell lung cancer cell line NCI-H460 (obtained from ATCC), a small-cell lung cancer cell line NCI-H82 (obtained from ATCC), a kidney cancer cell line ACHN (obtained from ATCC), a pancreatic cancer cell line BxPC-3 (obtained from ATCC), a malignant melanoma cell line A375 (obtained from ATCC), a throat cancer cell line FaDu (obtained from ATCC), a medulloblastoma cell line Daoy (obtained from ATCC), a cutaneous epithelioid sarcoma cell line VA-ES-BJ (obtained from ATCC), a rhabdomyosarcoma cell line A-204 (obtained from ATCC), a prostate cancer cell line DU145 (obtained from ATCC), a bladder cancer cell line T24 (obtained from ATCC), a lymphoma cell line SR (obtained from ATCC), a neuroblastoma cell line SH-SY5Y (obtained from DS Pharma Biomedical Co., Ltd.), a liver cancer cell line HepG2 (obtained from DS Pharma Biomedical Co., Ltd.), a stomach cancer cell line HGC-27 (obtained from DS Pharma Biomedical Co., Ltd.), and a multiple myeloma cell line NCI-H929 (obtained from DS Pharma Biomedical Co., Ltd.) were used as human cancer cell lines.
(§2) Each cell line was cultured in a cell culture medium recommended by ATCC or DS Pharma Biomedical Co., Ltd. and inoculated at 0.3 to 5.0×10^3 cells/well to a 96-well plate. The cells were cultured overnight in a carbon dioxide incubator of 37° C. containing 5% carbon dioxide. The medium was replaced with a fresh medium on the next day, then replaced with a mixed solution of a DMSO solution of a test compound with varying concentrations and a culture medium (final DMSO concentration: 0.1%), and left standing in a carbon dioxide incubator (day 0). IV-361, IV-379, IV-3, IV-215, IV-299, IV-669, IV-1049, and palbociclib (for comparison) were used as test compounds. For a control group, DMSO was added instead of the DMSO solution of the test compound to a cell culture medium (final DMSO concentration: 0.1%).
(§3) After culture for a predetermined period, the ATP activity of BT-549, C-33A, PA-1, NCI-H460, NCI-H82, ACHN, BxPC-3, A375, FaDu, Daoy, VA-ES-BJ, A-204, DU145, T24, and SR was measured by using ATPlite (manufactured by PerkinElmer, Inc.). The ATP activity of SH-SY5Y, HepG2, HGC-27, and NCI-H929 was measured by using CellTiter-Glo (manufactured by Promega Corp.).
(§4) The rate of inhibition of cell growth (%) was calculated according to the expression given below. Specifically, in the case where the difference between the ATP activity before culture (day 0) and the ATP activity after culture in the test compound-administered group is the same as the difference between the ATP activity before culture (day 0) and the ATP activity after culture in the control group, the rate of inhibition of cell growth is 0%. Rate of inhibition of cell growth=(1−((ATP activity of the test compound-administered group after culture)−(ATP activity of the test compound-administered group on day 0))/((ATP activity of the control group after culture)−(ATP activity of the control group on day 0)))×100
(§5) The concentration of the test compound necessary for inhibiting 50% of cell growth (GI50 value) was calculated by using EXSUS (version 8.1.0, manufactured by CAC Exicare Corp.).
On the technique in general: In ATP-based viability assays light output follows the ATP content of the culture.

In assay [3] the test system is liver cancer cell line HepG2. Description: Various human cancer cell growth inhibition test: HepG2. As to conditions: CellTiter-Glo, read-out: GI50 value (concentration necessary for inhibiting 50% of cell growth). In kind it is cell-based.
Description: as §1, §2, §3, §4, §5

Assay [4] has as its system ovary cancer cell line PA-1. Put plainly: Various human cancer cell growth inhibition test: PA-1. Type of assay: cell-based. The note with it: ATPlite, read-out: GI50 value (concentration necessary for inhibiting 50% of cell growth).
Description: as §1, §2, §3, §4, §5

Assay [5] deals with uterus cancer cell line C-33A. Description: Various human cancer cell growth inhibition test: C-33A. In kind it is cell-based. As to conditions: ATPlite, read-out: GI50 value (concentration necessary for inhibiting 50% of cell growth).
Description: as §1, §2, §3, §4, §5

For assay [6], the system named is IL-2 production. Description: Human PBMC CD3/CD28-induced IL-2 production inhibition test. Type of assay: cell-based. As to conditions: 48 h; human PBMC, CD3/CD28 stimulation, culture for 2 days, ELISA; read-out: IC50 value, IL-2 production inhibition. The method, then:
PBMC (peripheral blood mononuclear cell) was separated and collected by using Ficoll-Paque (manufactured by GE Healthcare Japan Corp.) from blood collected from a healthy human adult in the presence of heparin. A RPMI1640 medium containing 10% FBS, 1% penicillin/streptomycin/amphotericin B, essential amino acids, and pyruvic acid and containing a test compound dissolved in DMSO and 2 μg/mL CD28 was added at 100 μL/well to T cell Activation Plate Anti-Human CD3 96-well plate (manufactured by Becton, Dickinson and Company), and subsequently, a PBMC suspension prepared such that the number of cells was 2×10^6 cells/mL was added thereto at 100 μL/well (final DMSO concentration: 0.1%). A RPMI1640 medium containing 10% FBS and containing 0.1% DMSO and 2 μg/mL CD28 was similarly added to wells not supplemented with the test compound. After culture for 2 days in a carbon dioxide incubator, the culture supernatant was collected. The collected culture supernatant was stored at −20° C. until IL-2 content measurement.
In the measurement of an L-2 content in the culture supernatant, a sandwich ELISA kit (Quantikine Human IL-2, manufactured by R&D Systems, Inc.) was used. The L-2 content of each sample was calculated from the calibration curve of Standard IL-2 included in the kit. […] A test compound concentration necessary for inhibiting 50% of L-2 production (IC50 value) was calculated from the concentration of the added test compound and the rate of inhibition of IL-2 production by the test compound by using EXSUS (version 8.1.0, manufactured by CAC Exicare Corp.).

Assay [7] has as its system multiple myeloma cell line NCI-H929. Description: Various human cancer cell growth inhibition test: NCI-H929. As to conditions: CellTiter-Glo, read-out: GI50 value (concentration necessary for inhibiting 50% of cell growth). In kind it is cell-based.
Description: as §1, §2, §3, §4, §5

Take `Cc1cccc(Cl)c1NC(=O)N1Cc2c(NC(=O)C3([Si](C)(C)C)CCC3)n[nH]c2C1(C)C` [IV-215, N-(2-Chloro-6-methylphenyl)-6,6-dimethyl-3-[1-(trimethylsilyl)cyclobutanecarboxamido]-4,6-dihydropyrrolo[3,4-c]pyrazole-5 (1H)-carboxamide]: the inhibition in vivo at 0.01 % in assay [1] is at least 50%. For the same compound, the GI50 in assay [2], in assay [3], in assay [4], in assay [5] and in assay [7] was below 300 nM each time. For the same compound, the IC50 in assay [6] was at most 100 nM.
In the case of `Cc1cccc(Br)c1NC(=O)N1Cc2c(NC(=O)C3([Si](C)(C)C)CCC3)n[nH]c2C1(C)C` [IV-299, N-(2-Bromo-6-methylphenyl)-6,6-dimethyl-3-[1-(trimethylsilyl)cyclobutanecarboxamido]-4,6-dihydropyrrolo[3,4-c]pyrazole-5 (1H)-carboxamide], the inhibition in vivo at 0.01 % in assay [1] is at least 50%. Further, the GI50 in assay [2] is below 300 nM; in assay [3], 300 to 1000 nM; in assay [4] it was below 300 nM; in assay [5], below 300 nM; in assay [7], below 300 nM. For the same compound, the IC50 in assay [6] was at most 100 nM.
For `Cc1ccc(C)c(NC(=O)N2Cc3c(NC(=O)C4([Si](C)(C)C)CCC4)n[nH]c3C2(C)C)c1F` [IV-669, N-(2-Fluoro-3,6-dimethylphenyl)-6,6-dimethyl-3-[1-(trimethylsilyl)cyclobutanecarboxamido]-4,6-dihydropyrrolo[3,4-c]pyrazole-5(1H)-carboxamide], the GI50 in assay [2], in assay [3], in assay [4], in assay [5] and in assay [7] was below 300 nM each time. For the same compound, in assay [6], the IC50 is at most 100 nM.
Regarding `CC1(C)c2[nH]nc(NC(=O)C3([Si](C)(C)C)CCC3)c2CN1C(=O)Nc1c(F)ccc2ccoc12` [IV-1049, N-(6-Fluorobenzofuran-7-yl)-6,6-dimethyl-3-[1-(trimethylsilyl)cyclobutanecarboxamido]-4,6-dihydropyrrolo[3,4-c]pyrazole-5 (1H)-carboxamide], the GI50 in assay [2], in assay [3], in assay [4], in assay [5] and in assay [7] was below 300 nM throughout. Besides, in assay [6], the IC50 is at most 100 nM.
